Here are results for 48 compounds from ChEMBL document CHEMBL3044597, “Docking-based 3D-QSAR modeling of the inhibitors of IMP metallo--lactamase” (Med Chem Res, 2013).

For the assay, the target named is Beta-lactamase (Pseudomonas aeruginosa, UniProt Q79MP6). As to the kind of experiment: Inhibition of Pseudomonas aeruginosa IMP1 metallo-beta-lactamase.
Chain of Beta-lactamase (Q79MP6 whole entry): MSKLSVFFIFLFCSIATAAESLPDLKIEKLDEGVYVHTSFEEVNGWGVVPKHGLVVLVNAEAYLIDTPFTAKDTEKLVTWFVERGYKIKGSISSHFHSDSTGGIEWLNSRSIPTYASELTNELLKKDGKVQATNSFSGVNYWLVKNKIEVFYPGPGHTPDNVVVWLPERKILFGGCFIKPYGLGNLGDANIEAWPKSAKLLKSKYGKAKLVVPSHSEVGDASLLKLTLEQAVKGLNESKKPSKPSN
By IC50 is commonly meant the concentration that inhibits the measured activity by half. Low readings indicate greater potency, high ones weaker potency. Compound `O=C(O)[C@@H](Cc1ccc2c(c1)OCO2)[C@H](Cc1ccc2c(c1)OCO2)C(=O)O` had an IC50 of 0.00899 µM.

In turn, `O=C(O)[C@@H](Cc1ccccc1)[C@H](Cc1ccc2c(c1)OCO2)C(=O)O` gave an IC50 of 0.0037 µM.

`COc1cccc(C(=O)N[C@H](C)C(=O)S[C@@H](C)Cc2ccc(-c3ccccc3)cc2)c1`: the IC50 is 38 µM. The value for `C[C@@H](Cc1ccc(-c2ccccc2)cc1)SC(=O)[C@@H](C)NC(=O)c1cccc(N(C)C)c1` was 15 µM; that for `COc1cc(OC)c(C(=O)N[C@H](C)C(=O)S[C@@H](C)Cc2ccc(-c3ccccc3)cc2)c(OC)c1` was 46 µM.

For the compound `C[C@@H](Cc1ccc(-c2ccccc2)cc1)SC(=O)[C@@H](C)NC(=O)c1ccc2ccccc2c1`, it took 18 µM to reach half-maximal inhibition (IC50). The value for `C=CCOC(=O)N[C@H](C)C(=O)S[C@@H](C)Cc1ccc2oc3ccccc3c2c1` was 2.9 µM; that for `CCCC(=O)N[C@H](C)C(=O)S[C@@H](C)Cc1ccc(-c2ccccc2)cc1` was 9.29 µM; that for `CCC(=O)N[C@H](C)C(=O)S[C@@H](C)Cc1ccc(-c2ccccc2)cc1` was 9.51 µM. On to `C[C@@H](Cc1ccc2oc3ccccc3c2c1)SC(=O)[C@@H](C)NC(=O)c1ccccc1`, for which the IC50 is 1.5 µM. `C[C@@H](Cc1ccc(-c2ccccc2)cc1)SC(=O)[C@@H](C)NC(=O)CCCC(=O)O` showed an IC50 of 91 µM. Next, `C[C@@H](Cc1ccccc1)SC(=O)[C@@H](C)NC(=O)c1ccccc1`: 20 µM; `CC(=O)N[C@H](C)C(=O)S[C@@H](C)Cc1ccc(-c2ccccc2)cc1`: 18 µM. The value for `C=CCOC(=O)N[C@H](C)C(=O)S[C@@H](C)Cc1ccc(-c2ccccc2)cc1` was 4.4 µM; that for `C[C@@H](Cc1ccc(-c2ccccc2)cc1)SC(=O)[C@@H](C)NC(=O)c1ccccc1` was 3.6 µM.

Turning to `CCCCC(=O)N[C@H](C)C(=O)S[C@@H](C)Cc1ccc(-c2ccccc2)cc1`, the IC50 was 4.8 µM. The value for `CCCCCC(=O)N[C@H](C)C(=O)S[C@@H](C)Cc1ccc(-c2ccccc2)cc1` was 13 µM; that for `CC(C)C(=O)N[C@H](C)C(=O)S[C@@H](C)Cc1ccc(-c2ccccc2)cc1` was 9.71 µM.

As for `CC(C)CC(=O)N[C@H](C)C(=O)S[C@@H](C)Cc1ccc(-c2ccccc2)cc1`, it took 5.3 µM to reach half-maximal inhibition (IC50).

Compound `C/C=C/C(=O)N[C@H](C)C(=O)S[C@@H](C)Cc1ccc(-c2ccccc2)cc1` showed an IC50 of 33 µM. Next, `C[C@@H](Cc1ccc(-c2ccccc2)cc1)SC(=O)[C@@H](C)NC(=O)CSCC(=O)O`: 13 µM; `C[C@@H](Cc1ccc(-c2ccccc2)cc1)SC(=O)[C@@H](C)NC(=O)Cc1ccccc1`: 5.79 µM; `C[C@@H](Cc1ccc(-c2ccccc2)cc1)SC(=O)[C@@H](C)NC(=O)COc1ccccc1`: 1 µM. The compound `C[C@@H](Cc1ccc(-c2ccccc2)cc1)SC(=O)[C@@H](C)NC(=O)CCc1ccccc1` showed an IC50 of 15 µM. Next, `C[C@@H](Cc1ccc(-c2ccccc2)cc1)SC(=O)[C@@H](C)NC(=O)/C=C/c1ccccc1`: 11 µM. On to `C[C@@H](Cc1ccc(-c2ccccc2)cc1)SC(=O)[C@@H](C)NC(=O)CCC(=O)c1ccccc1`, for which inhibition was half-maximal at 0.25 µM (IC50). Compound `C[C@@H](Cc1ccc(-c2ccccc2)cc1)SC(=O)[C@@H](C)NC(=O)CNC(=O)c1ccccc1` had an IC50 of 50 µM. Next, `C[C@@H](Cc1ccc(-c2ccccc2)cc1)SC(=O)[C@@H](C)NC(=O)Cc1ccc(O)cc1`: 3.1 µM. Next, `COc1ccc(CC(=O)N[C@H](C)C(=O)S[C@@H](C)Cc2ccc(-c3ccccc3)cc2)cc1`: 12 µM.

For the compound `C[C@@H](Cc1ccc(-c2ccccc2)cc1)SC(=O)[C@@H](C)NC(=O)Cc1ccc(N(C)C)cc1`, inhibition was half-maximal at 55 µM (IC50). The value for `C[C@@H](Cc1ccc(-c2ccccc2)cc1)SC(=O)[C@@H](C)NC(=O)Cc1ccccc1Cc1ccccc1` was 24 µM; that for `C[C@@H](Cc1ccc(-c2ccccc2)cc1)SC(=O)[C@@H](C)NC(=O)Cc1cccnc1` was 32 µM; that for `C[C@@H](Cc1ccc(-c2ccccc2)cc1)SC(=O)[C@@H](C)NC(=O)Cc1cccc2ccccc12` was 12 µM. The value for `COc1ccc(C(=O)N[C@H](C)C(=O)S[C@@H](C)Cc2ccc(-c3ccccc3)cc2)cc1` was 29 µM; that for `O=C(O)[C@@H](Cc1ccccc1)[C@H](Cc1ccccc1)C(=O)O` was 0.0027 µM; that for `C[C@@H](c1ccccc1)[C@H](C(=O)O)[C@H](Cc1ccccc1)C(=O)O` was 0.013 µM. Next, `CC(=O)N[C@H](C)C(=O)S[C@@H](C)Cc1ccc2oc3ccccc3c2c1`: 2 µM; `O=C(O)[C@H](S)Cc1ccc(-c2ccccc2)cc1`: 0.057 µM; `CC(=O)S[C@H](Cc1ccc(-c2ccccc2)cc1)C(=O)O`: 0.0839 µM. In the case of `O=C(S[C@H](Cc1ccccc1)C(=O)O)c1ccccc1`, it took 0.064 µM to reach half-maximal inhibition (IC50). The compound `O=C(S[C@H](Cc1ccc2oc3ccccc3c2c1)C(=O)O)c1ccccc1` gave an IC50 of 0.0013 µM.

With `CC(=O)S[C@H](Cc1ccccc1)C(=O)O`, the IC50 is 12 µM. The value for `O=C(O)[C@H](S)Cc1ccccc1` was 0.0859 µM; that for `O=C(O)[C@H](S)Cc1ccc2oc3ccccc3c2c1` was 0.023 µM; that for `O=C(O)[C@@H](S)Cc1ccc2oc3ccccc3c2c1` was 0.25 µM. The compound `O=C(S[C@@H](Cc1ccccc1)C(=O)O)c1ccccc1` had an IC50 of 2.5 µM.

Regarding `O=C(O)[C@@H](S)Cc1ccc(-c2ccccc2)cc1`, the IC50 is 1.2 µM. Next, `O=C(O)[C@H](Cc1ccccc1)[C@@H](Cc1ccccc1)C(=O)O` [(2R,3R)-2,3-DIBENZYLSUCCINIC ACID]: 0.21 µM.
